The term IC50 denotes the concentration that inhibits the measured activity by half.

Data set [1] concerns MDA-MB-231. The experiment in a line: Photocytotoxicity in human MDA-MB-231 cells assessed as cell viability preincubated with compound for 1 hr followed by light irradiated with 400 to 700 nm 100 mW/cm^2 for 10 mins and measured after 24 hrs by CCK-8 assay. The format is functional, cell-based. The conditions noted are these: MDA-MB-231, light or radiation study. In general terms: Tetrazolium dyes change colour on reduction, which living cells bring about.

For data set [2], the system named is MDA-MB-231. The experiment in a line: Dark cytotoxicity against human MDA-MB-231 cells assessed as cell viability at 1 uM incubated for 24 hrs by CCK8 assay. The conditions noted are these: mda-mb-231, 24 h. Type of data set: toxicity, cell-based.
Data set [3] is described as follows: Dark cytotoxicity against human MDA-MB-231 cells assessed as cell viability incubated for 24 hrs by CCK8 assay. Type of data set: toxicity, cell-based.
The nature of data set [4]: Induction of ROS generation in BPS buffer assessed as increase in superoxide anion radical level at 10 uM irradiated with 525 nm 20 mW/cm2 light by DHR123 probe based fluorescence spectra analysis. The format is functional.

The source made the active and inactive calls. The calls are words filed in the database; no cut-off is given here.

Take `CC[n+]1ccc(/C=C/c2ccc(-c3cnn4ccc(N5CCOCC5)nc34)s2)cc1.[Br-]`: the IC50 in data set [1] is > 10 µM. The Activity entry in data set [2] was “Non-toxic”. The IC50 at 24 h in data set [3] was > 10 µM.
`CC[n+]1c(/C=C/c2ccc(-c3cnn4ccc(N5CCOCC5)nc34)o2)sc2ccccc21`: the IC50 in data set [1] stood at 1.01 µM. The IC50 at 24 h in data set [3] is > 10 µM.
As to `COC(=O)c1ccccc1C1c2ccc(N)cc2Oc2cc(N)ccc21`, in data set [4], the outcome was Active.
Take `CC[n+]1ccc(/C=C/c2ccc(-c3cnn4ccc(N5CCOCC5)nc34)s2)c2ccccc21`: the IC50 in data set [1] turned out to be 0.92 µM. For the same compound, in data set [3], the half-inhibitory concentration (IC50) at 24 h was > 10 µM.

For the origin of these results see ChEMBL document CHEMBL6177984, “Pyrazolo[1,5-a]pyrimidine-Based Type-I Photosensitizer as an Efficient Pyroptosis Inducer for Tumor Ablation” (J Med Chem, 2025).
